Patent US8795742B2 (priority 2006, dated 2014)

Test system: H5 serum type avian influenza virus
Design: species or system yellow chicken
Conditions: in vivo

## CC(N)C12CC3CC(CC(C3)C1)C2 (stereo not drawn) [Group C, Rimantadine]
  Effective rate: 42.5%
  Number of death: 23
  Rate of death: 57.5%
